Measured values: PMC5556071, “ATR inhibition facilitates targeting of leukemia dependence on convergent nucleotide biosynthetic pathways” (Nature Communications, 2017)
“And” between values parts separate entries of the source, which are not always exact repeats. Equal entries are not always repeated.

Tested on: CEM cells
Assay: Non-targeted LC-MS metabolite profiling: percent [13C6]glucose labeling and relative metabolite levels
Format: cell-based, human
Conditions: CEM cells, 12 h following release from G1 arrest, replicates #1-#6
From the text: To further investigate the functions of dCK and ATR at the G1/S transition in CEM cells, a non-targeted liquid chromatography mass spectrometry (LC-MS) assay was used to determine the utilization of labeled [^13C6]glucose and [^13C9,^15N3]deoxycytidine, the main substrates for de novo and salvage nucleotide biosynthesis, respectively. Of the 166 metabolites identified in CEM cells treated with VE-822 and/or dCKi, 105 metabolites found in all four treatment groups contained glucose-derived ^13C atoms. […] These metabolites included intermediates such as rUTP, rCTP and rCDP in the de novo dCTP biosynthesis (Fig. 1d). […] However, several deoxyribonucleotides, including dCTP, were below the limit of detection of the non-targeted LC-MS approach, raising the concern that the sensitivity of this assay is not sufficient to measure the contribution of the salvage pathway or the ratio of de novo and salvage biosynthesis to these pools. To address this problem, a newly developed targeted MS assay was developed (Fig. 1e and Supplementary Fig. 3). In this assay, samples containing either extracted dNTPs or hydrolyzed DNA from labeled cells are separated by LC for detection by a triple quadrupole mass spectrometer using multiple reaction monitoring (LC-MS/MS-MRM). The first (Q1) and third (Q3) quadrupoles function as mass filters, while the second (Q2) quadrupole serves as a collision chamber (Fig. 1e). For instance, to profile the biosynthetic composition of deoxycytidine (dC) derived from hydrolyzed DNA or dCTP, an intact, protonated dC ion is selected in Q1, followed by fragmentation of the glycosidic bond, which releases protonated cytosine in Q2, that is filtered in Q3 and detected to generate an ion chromatogram. The peak areas for the ion chromatograms of salvage [^13C9,^15N3]dC (red trace), de novo [^13C5]dC (black trace, from [^13C6]glucose) and unlabeled dC (gray trace) (Fig. 1e) are used to determine the relative contributions of the de novo and salvage routes both to dCTP pools and to DNA-incorporated dCTP.
Cells were transferred into RPMI-1640 without glucose and supplemented with 10% dialyzed FBS (Gibco) containing the following labeled substrates: precursors for de novo [U-^13C6]glucose (Sigma-Aldrich, 389374) at 11 mM; precursors for purine salvage [U-^13C10,^15N5]dA (Cambridge Isotopes, CIL 3896), [^15N5]dA (Cambridge Isotopes, NLM-3895) and [^15N5]dG (Cambridge Isotopes, NLM-3899) at 5 µM or as indicated; and precursors for pyrimidine salvage: [U-^13C9,^15N3]dC (Silantes, 124603602) and [U-^13C10,^15N2]dT (Cambridge Isotopes, CNLM-3902) at 5 µM and [^15N2]orotate (Cambridge Isotopes, NLM-1048) at indicated concentrations. The cells were incubated for 12 h or as indicated before sample collection and processing. […]
Non-targeted LC-MS metabolic assays. 1 x 10^6 cells were washed with ice-cold 150 mM ammonium acetate twice before adding 1 mL of ice-cold 80% methanol with 10 nM norvaline as an internal standard. After vigorous vortexing, samples were centrifuged at maximum speed, the aqueous layer was transferred to a glass vial and the metabolites were dried under vacuum. Metabolites were resuspended in 50 μL 70% acetonitrile (ACN) and 5 μL of this solution used for the mass spectrometer-based analysis. The analysis was performed on a Q Exactive (Thermo Scientific) in polarity-switching mode with positive voltage 4.0 kV and negative voltage 4.0 kV. The mass spectrometer was coupled to an UltiMate 3000RSLC (Thermo Scientific) UHPLC system. Mobile phase A was 5 mM ammonium acetate (NH4AcO), pH 9.9, B was acetonitrile and the separation achieved on a Luna […] NH2 100 A column (150 × 2.0 mm, Phenomenex). The flow was 200 μL/min, and the gradient ran from 15% A to 95% A in 18 min, followed by an isocratic step for 9 min and re-equilibration for 7 min. Metabolites were detected and quantified as area under the curve based on retention time and accurate mass (≤ 3 p.p.m.) using the TraceFinder 3.1 (Thermo Scientific). Relative amounts of […]

[1] = metabolite CDP (KEGG C00112), listed as D
[2] = metabolite CDP-EtA (KEGG C00570), listed as D
[3] = metabolite CMP (KEGG C00055), listed as D
[4] = metabolite CTP (KEGG C00063), listed as D
[5] = metabolite Choline (KEGG C00114), listed as D
[6] = metabolite Cinnamic acid (KEGG C00423), listed as D
[7] = metabolite Cit (KEGG C00158), listed as D
[8] = metabolite Creatine (KEGG C00300), listed as D
[9] = metabolite Creatinine (KEGG C00791), listed as D
[10] = metabolite Cytosine (KEGG C00380), listed as D
[11] = metabolite DMG (KEGG C01026), listed as D
[12] = metabolite Dihydroorotate (KEGG C00337), listed as D
[13] = metabolite F16BP (KEGG C00354), listed as D
[14] = metabolite Folate (KEGG C00504), listed as D
[15] = metabolite Fru (KEGG C00095), listed as D
[16] = metabolite Fum (KEGG C00122), listed as D
[17] = metabolite G (KEGG C00387), listed as D
[18] = metabolite dG (KEGG C00330), listed as D

SMILES: COc1ccc(-c2nc([C@@H](C)Sc3nc(N)cc(N)n3)c(C)s2)cc1OCCNS(C)(=O)=O [dCKi]
- Glucose labeling of CDP [1]: 77.96% and 72.97% and 80.28% and 0.44% and 79.17% and 76.50%
- Relative level of CDP [1]: 0.5 and 1.3 and 2.1 and 0.0678 and 0.334 and 0.7
- Glucose labeling of CDP-EtA [2]: 70.01% and 72.58% and 83.31% and 72.60% and 75.82% and 67.23%
- Relative level of CDP-EtA [2]: 0.9 (4×) and 1.4 and 1.0
- Glucose labeling of CMP [3]: 71.05% and 65.79% and 64.24% and 62.92% and 70.94% and 75.98%
- Relative level of CMP [3]: 1.0 and 0.663 and 1.8 and 0.2 and 0.366 and 0.8
- Glucose labeling of CTP [4]: 81.19% and 79.64% and 75.43% and 84.05% and 71.54% and 81.90%
- Relative level of CTP [4]: 0.345 and 0.9 and 1.2 and 0.0446 and 0.234 and 0.445
- Glucose labeling of Choline [5]: 0.00256% and 0.00252% and 0.00247% (2×) and 0.00241% and 0.00245%
- Relative level of Choline [5]: 1.1 and 1.3 (2×) and 0.842 and 0.8 (2×)
- Glucose labeling of Cinnamic acid [6]: 0.00% (5×) and 1.11e-14%
- Relative level of Cinnamic acid [6]: 1.2 and 1.3 and 1.6 and 0.8 (2×) and 0.7
- Glucose labeling of Cit [7]: 50.63% and 52.82% and 53.30% and 41.63% and 44.16% and 45.64%
- Relative level of Cit [7]: 0.8 and 1.3 and 1.4 and 0.367 and 0.6 and 0.7
- Glucose labeling of Citraconic acid (metabolite Citraconic acid (KEGG C02226)): 0.00%
- Relative level of Citraconic acid (metabolite Citraconic acid (KEGG C02226), listed as D): 1.1 and 1.0 (2×) and 1.3 and 0.645 and 0.9
- Glucose labeling of Citrulline (metabolite Citrulline (KEGG C00327)): 0.18%
- Relative level of Citrulline (metabolite Citrulline (KEGG C00327), listed as D): 2.2 and 0.259 and 0.529 and 0.8 and 0.4 and 0.527
- Glucose labeling of Creatine [8]: 0.000817% and 0.00101% and 2.36e-6% and 0.000311% and 0.000285% and 0.000183%
- Relative level of Creatine [8]: 1.0 (4×) and 1.1 (2×)
- Glucose labeling of Creatinine [9]: 0.000768% and 0.000756% and 0.000758% and 0.000811% and 0.00078% and 0.000884%
- Relative level of Creatinine [9]: 1.2 and 0.952 and 1.0 (2×) and 0.8 and 0.9
- Glucose labeling of Cystathionine (metabolite Cystathionine (KEGG C02291)): 0.26%
- Relative level of Cystathionine (metabolite Cystathionine (KEGG C02291), listed as D): 1.9 (2×) and 1.8 and 0.9 and 0.634 and 0.644
- Glucose labeling of Cytosine [10]: 0.000526% and 0.000773% and 0.000656% and 0.000291% and 0.000873% and 0.0323%
- Relative level of Cytosine [10]: 1.6 and 0.8 and 1.1 (2×) and 1.4 and 2.5
- Glucose labeling of DHAP (metabolite DHAP (KEGG C00111)): 100.00%
- Relative level of DHAP (metabolite DHAP (KEGG C00111)): 0.162
- Glucose labeling of DMG [11]: 0.05% and 0.06% and 0.000349% and 0.02% and 0.0219% and 0.03%
- Relative level of DMG [11]: 1.0 (2×) and 1.3 (2×) and 1.4 and 1.1
- Glucose labeling of Dihydroorotate [12]: 2.31% and 4.79% and 3.17% and 1.21% and 1.28% and 0.88%
- Relative level of Dihydroorotate [12]: 1.8 and 2.4 and 1.6 and 0.556 and 0.665 and 0.641
- Glucose labeling of F16BP [13]: 45.03% and 62.70% and 85.32% and 37.47% and 50.53% and 49.36%
- Relative level of F16BP [13]: 0.184 and 0.186 and 0.7 and 0.137 and 0.132 and 0.115
- Glucose labeling of Folate [14]: 100.00% and 0.00% (4×) and 1.11e-14%
- Relative level of Folate [14]: 1.8 and 6.1 and 0.8 and 0.376 and 0.9
- Glucose labeling of Fru [15]: 17.52% and 38.15% and 34.20% and 21.41% and 18.03% and 26.54%
- Relative level of Fru [15]: 1.5 and 0.6 and 0.8 and 1.0 and 1.4 and 0.9
- Glucose labeling of Fum [16]: 15.19% and 16.91% and 18.53% and 8.92% and 13.71% and 14.45%
- Relative level of Fum [16]: 0.9 and 1.0 and 1.4 and 0.443 and 0.654 and 0.7
- Glucose labeling of G [17]: 100.00% (3×) and 0.55% (3×)
- Relative level of G [17]: 1.4 and 0.8 and 0.9
- Glucose labeling of dATP (metabolite dATP (KEGG C00131)): 100.00%
- Relative level of dATP (metabolite dATP (KEGG C00131), listed as D): 0.743 and 1.0
- Glucose labeling of dCTP (metabolite dCTP (KEGG C00458)): 100.00%
- Relative level of dCTP (metabolite dCTP (KEGG C00458), listed as D): 1.0 and 0.8 and 1.2
- Glucose labeling of dG [18]: 0.40% and 0.52% and 0.55% and 0.48% and 0.47% and 0.42%
- Relative level of dG [18]: 1.5 and 0.9 (2×) and 1.1 and 0.8 (2×)
- Glucose labeling of dGDP (metabolite dGDP (KEGG C00361)): 100.00%
- Relative level of dGDP (metabolite dGDP (KEGG C00361)): 0.0
- Glucose labeling of dTMP (metabolite dTMP (KEGG C00364)): 100.00%
- Relative level of dTMP (metabolite dTMP (KEGG C00364), listed as D): 1.6 (2×) and 1.0 and 2.4
- Glucose labeling of dTTP (metabolite dTTP (KEGG C00459)): 100.00%
- Relative level of dTTP (metabolite dTTP (KEGG C00459), listed as D): 1.6 and 3.4 and 1.3
- Glucose labeling, Lys: 0.00%
- Glucose labeling, NAD+: 0.00%
- Glucose labeling, Nicotinamide: 0.00%
- Glucose labeling, P-Creatine: 0.0737%
- Glucose labeling, P-EtA: 0.0123%
- Glucose labeling, PEP: 100.00%
- Glucose labeling, Phe: 0.00%
- Glucose labeling, Pipecolate: 0.00%
- Glucose labeling, Pyr: 100.00%
- Glucose labeling, Thr (C00188): 0.00%
- Glucose labeling, Trigonelline (C01004): 0.00%
